Values of other authors as cited in US20230219928A1, “PREPARATION METHOD FOR AROMATIC ETHER COMPOUND” (Jiangsu Yahong Meditech Co., Ltd., priority 2020, published 2023).

Key:
[1] = human, phase II clinical trial conducted by Jiangsu Yahong Meditech in China
[2] = background statement

In the case of O=[N+]([O-])c1ccc(O)c2ncccc12 [nitroxoline], the biological half-life [1] is given as 1.22-1.44 hours and the water solubility [2] is given as “very low”.
